US20180353512A1, “COMBINATION THERAPIES FOR TREATING B-CELL MALIGNANCIES” (GILEAD SCIENCES, INC., priority 2015, published 2018)
Where two headings read alike, the source gives them in different places.

Experiments:
Type in all cases: cell-based
[1] = test system: TMD8; test: CellTiter-Glo viability assay at 96 h (Example 5); details: Homo sapiens
Experimental: (§1) Growth inhibition to Idelalisib or other inhibitors was assessed using CellTiter-Glo viability assay at 96 h. […] Cell lines were analyzed by whole exome sequencing, RNASeq, and phosphoproteomics. Protein expression was measured using Simple Western and SDS/PAGE and western blot. Caspase 3/7 was measured using Caspase-Glo 3/7 assay; apoptosis was measured with Annexin V assay and propidium iodide by flow cytometry.
(§2) Cell viability EC50 was determined using a sigmoidal dose-response (variable slope) curve generated from quadruplicate samples. Statistical significance was determined using the student's t-test for cell viability and two-tailed paired t-test for apoptosis experiments in Prism (GraphPad).

[2] = test system: FSCCL (WSU-FSCCL); test: CellTiter Glo viability assay after 96 h; details: read-out: EC50, cell viability
Experimental: (§3) Idelalisib resistance was established by continuous passaging of a clonal isolate of WSU-FSCCL in the presence of 1 μM idelalisib; clonal isolates from a passage-matched line (FSCCL^S) and idelalisib-resistant line (FSCCL^R) were generated through 2 rounds of single-cell-limiting dilution. Growth inhibition to idelalisib or other inhibitors was performed after 96 h using CellTiter Glo viability assay. Characterization of mutations and gene expression were identified by whole exome sequencing and RNA-Seq, respectively. Whole cell lysates were analyzed by western blots.

[3] = test system: FSCCL^R clone 1 (PI3KCA E970K); test: CellTiter Glo viability assay after 96 h
Experimental: as §3

[4] = test system: FSCCL^R clone 2 (PI3KCA N345K); test: CellTiter Glo viability assay after 96 h
Experimental: as §3

[5] = test system: FSCCL^R clone 3 (PI3KCA P539R); test: CellTiter Glo viability assay after 96 h
Experimental: as §3

[6] = test system: FSCCL^S; test: CellTiter Glo viability assay after 96 h; details: read-out: EC50
Experimental: as §3

[7] = test system: FSCCL^R SFK^HIGH; test: CellTiter Glo viability assay after 96 h
Experimental: as §3

[8] = test system: TMD8^R (Idelalisib-resistant line); test: CellTiter-Glo viability assay at 96 h; details: read-out: EC50, cell viability
Experimental: as §1, §2
(§4) Idelalisib-resistant (TMD8^R) cell line and passage-matched Idelalisib-sensitive (TMD8^S) cell line were generated according to the procedure described in Example 5 above. To characterize the resistant cells, cell viability assays, RNASeq of multidrug resistance (MDR) family of ABC transporter genes (N=33), apoptosis assays, and phosphoprotein analysis were performed. Cell viability was measured using CellTiter-Glo, as described in Example 1A above. Western blot and protein level analysis were performed after treatment with 420 nM idelalisib, 320 nM Compound B and combination thereof, using Peggy Sue (ProteinSimple) automated Western Blot system. Protein concentration (pg/μL) was quantitated using recombinant protein standards. Normalized AUC were determined for each of the treatment groups, normalized to actin. Apoptosis was assessed by propidium iodide and Annexin V/FITC staining and measured by flow cytometry, as described in Example 1A above. Western Blot with anti-p-AKT (S473) antibody and Peggy Sue were used to determine the phosphorylation state of downstream signaling components.

[9] = test system: TMD8^S (DMSO passage matched, idelalisib-sensitive line); test: CellTiter-Glo viability assay at 96 h; details: read-out: EC50, cell viability
Experimental: as §1, §2, §4

[10] = test system: TMD8^R cells; test: Apoptosis, Annexin V assay and propidium iodide by flow cytometry; details: Annexin V at 48 h, Idelalisib=1 μM
Experimental: as §1

[11] = test system: OCI-LY10 cells; test: CellTiter-Glo cell viability assay, four days (Example 1A); details: OCI-LY10; single agent
Experimental: (§5) In vitro anti-proliferative activity of agents was assessed using CellTiter-Glo™ Assay (Promega), which quantifies cellular ATP level. Test compounds were dissolved in DMSO to prepare 10 mM stock solutions. […] For drug combination studies, a two or three fold horizontal serial dilution pattern was used for Compound B and combined with Idelalisib using a two, three, or four fold vertical serial dilution pattern. […] The final DMSO concentration in the test media was 0.2%. Each combination used replicates of four plates to generate sufficient data for evaluation of synergy scores. […] The assay growth medium for all lines was RPMI supplemented with 20% FBS and […] penicillin-streptomycin. Seeding density was optimized for growth rate over 96 hours for each cell line and was between 10,000-30,000 cells per well of 96 well plates. After four days incubation with agents at 37° C./5% CO2, the CellTiter-Glo™ assay was performed following the manufacturer's protocol. Relative luminescence units were quantified using a Biotek Synergy luminometer.
(§6) Data from a plate was excluded if either Z′<0.5 or the growth of the cell lines was less than one doubling in the four day assay period. Z′ was calculated using the formula: Z′=[1−((3(σstau+σDMSO))/(|μDMSO−μstau|)] where σstau and σDMSO are the standard deviation of the 100% inhibited staurosporine and 0% inhibited DMSO control wells, respectively. μDMSO and μstau are the mean of the […] control wells, respectively. The raw Cell Titer Glo signal was normalized according to the following formula: [(raw value)−(100% inhibited staurosporine control)]/[(DMSO control value)−(100% inhibited staurosporine control)].
(§7) EC50 was determined using GraphPad Prism or Dose Response software by fitting the data to a four parameters variable slope model. […] For combination studies, the EC50 at each test article concentration was determined from graphs of the EC50 of one compound at a fixed dose of second compound. The EC50 shift was calculated by taking the ratio of the EC50 of the single agent by the EC50 at the maximum dose of the second agent.
(§8) Synergy was analyzed using the MacSynergy II program, which calculates a theoretical additive value for the drug combination that is based on the values generated by each drug alone using the Bliss Independence mathematical model. The Bliss independence model assumes that each drug acts independently. The theoretical additive effect for each compound is calculated and then subtracted from the actual effect. Synergy is defined by greater than expected effects while antagonism is defined by less than expected effects. In this example, a synergy volume greater than 50 was considered significant. The EC50 values determined in drug combination studies represent a single experiment run in quadruplicate and therefore may differ slightly from the single agent EC50 values.

[12] = test system: Ri-1 cells; test: as above; details: Ri-1; single agent
Experimental: as §5, §6, §7, §8

[13] = test system: TMD-8 cells; test: as above; details: TMD-8; single agent
Experimental: as §5, §6, §7, §8

[14] = read-out: EC50 BYL-719 (+IDELA 0.6 μm)
[15] = FIGS. 11A, 13A, printed with 1 μM of each named agent

Work on `Cc1cc([C@@H](C)Nc2ccccc2C(=O)O)c2nc(N3CCOCC3)cc(=O)n2c1` [AZD-6482] yielded an EC50 [1] of 0.52 µM and an EC50 [2] of 4.6 µM.
With `Cc1nc(NC(=O)N2CCC[C@H]2C(N)=O)sc1-c1ccnc(C(C)(C)C(F)(F)F)c1` [BYL-719] the EC50 [1] was 1.2 µM, the EC50 [2] was > 10 µM and the EC50 [3, 14] was 0.123 µM. The EC50 ([3]; single agent, read-out: EC50) was 2.12 µM, the EC50 [4, 14] was 0.143 µM and the EC50 ([4]; single agent, read-out: EC50) was 1.54 µM. For the same molecule, the EC50 [5, 14] was 0.239 µM, the EC50 ([5]; single agent, read-out: EC50) was > 3 µM and the EC50 ([6]; PI3KCA WT, Table 13, single agent) was 1.61 µM.
`Cc1nc(Nc2ncc(C(=O)Nc3c(C)cccc3Cl)s2)cc(N2CCN(CCO)CC2)n1` [Dasatinib] showed an EC50 ([7]; read-out: EC50 Dasatinib (+IDELA 600 nM)) of 0.015 µM, an EC50 ([7]; single agent, read-out: EC50 Dasatinib) of 0.058 µM and an EC50 ([6]; Table 14, single agent) of 0.034 µM.
`C[C@H](Nc1nc[nH]c2ncnc1-2)c1cc2cccc(Cl)c2c(=O)n1-c1ccccc1` [Duvelisib, 8-Chloro-2-phenyl-3-[(1S)-1-(3H-purin-6-ylamino)ethyl]-1(2H)-isoquinolinone] was tested, and the EC50 ([8]; TMD8^R, single agent) was > 4 µM and the EC50 ([9]; single agent) was 0.58 µM.
With `c1cn2cc(-c3ccc4cn[nH]c4c3)nc(Nc3ccc(N4CCOCC4)cc3)c2n1` [ENTO] the EC50 ([7]; read-out: EC50 ENTO (+IDELA 600 nM)) was 1.92 µM and the EC50 ([6]; Table 15, single agent) was 1.8 µM.
Work on `CS(=O)(=O)N1CCN(Cc2cc3nc(-c4cccc5[nH]ncc45)nc(N4CCOCC4)c3s2)CC1` [GDC-0941] yielded an EC50 [1] of 0.027 µM.
In the case of `CNc1nc(-c2ccc3c(N)n[nH]c3c2)cc(N2C[C@@H](C(=O)NC3CCCCC3)CC[C@H]2C)n1` [GSK-2334470], the EC50 [8, 15] is reported as < 10 µM and the apoptosis ([10]; GSK-2334470=1 μM, vehicle control 22%) is reported as 21%.
For `C=CC(=O)N1CCC[C@@H](n2nc(-c3ccc(Oc4ccccc4)cc3)c3c(N)ncnc32)C1` [Ibrutinib, 1-[(3R)-3-[4-Amino-3-(4-phenoxyphenyl)-1H-pyrazolo[3,4-d]pyrimidin-1-yl]piperidin-1-yl]prop-2-en-1-one], the “growth of cell line” value [11] was “inhibited the growth”, the “growth of cell line” value [12] was “inhibited the growth” and the “growth of cell line” value [13] was “inhibited the growth”. For the same molecule, the EC50 ([9]; unit inferred) was 0.0005 µM.
With `NC1(c2ccc(-c3nc4ccn5c(=O)[nH]nc5c4cc3-c3ccccc3)cc2)CCC1` [MK-2206] the EC50 [8, 15] was < 10 µM and the apoptosis ([10]; MK-2206=1 μM, vehicle control 24%) was 33%.
